Among the data in US20160122342A1, “ENHANCER OF ZESTE HOMOLOG 2 INHIBITORS” (GLAXOSMITHKLINE INTELLECTUAL PROPERTY (NO.2) LIMITED, priority 2013, published 2016) are IC50 values, retold here.

Counter-ions that a name gives are not always drawn.

For orientation: IC50 means the concentration needed to halve the response being measured. A low value points to inhibition by little substance.

For this assay, the target named is T1, EZH2 within the PRC2 complex (Homo sapiens, UniProt Q15910).
T1 construct: FLAG; made in house; host or cells: Sf9 cells
T1 sequence (Q15910 whole entry): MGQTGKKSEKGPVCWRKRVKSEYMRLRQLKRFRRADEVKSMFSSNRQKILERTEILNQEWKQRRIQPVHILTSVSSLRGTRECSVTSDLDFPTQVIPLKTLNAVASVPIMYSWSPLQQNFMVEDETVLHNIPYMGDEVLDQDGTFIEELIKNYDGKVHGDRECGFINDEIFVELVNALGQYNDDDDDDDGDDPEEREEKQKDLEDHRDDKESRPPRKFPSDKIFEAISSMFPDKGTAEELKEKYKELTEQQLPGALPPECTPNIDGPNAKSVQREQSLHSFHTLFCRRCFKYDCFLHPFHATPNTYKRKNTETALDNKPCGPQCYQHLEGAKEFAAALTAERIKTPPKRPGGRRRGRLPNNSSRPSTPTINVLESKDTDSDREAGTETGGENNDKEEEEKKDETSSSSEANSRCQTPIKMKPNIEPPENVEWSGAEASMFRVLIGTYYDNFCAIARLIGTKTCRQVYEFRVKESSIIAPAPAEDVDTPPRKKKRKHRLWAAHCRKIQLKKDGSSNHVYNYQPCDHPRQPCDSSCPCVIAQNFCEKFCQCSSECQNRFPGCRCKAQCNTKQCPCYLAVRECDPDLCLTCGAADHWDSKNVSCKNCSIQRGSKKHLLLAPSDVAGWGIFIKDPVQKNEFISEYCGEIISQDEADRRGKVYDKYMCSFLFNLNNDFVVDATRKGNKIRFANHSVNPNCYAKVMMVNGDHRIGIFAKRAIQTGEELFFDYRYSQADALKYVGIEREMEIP
T1 sequence (O75530 whole entry partner): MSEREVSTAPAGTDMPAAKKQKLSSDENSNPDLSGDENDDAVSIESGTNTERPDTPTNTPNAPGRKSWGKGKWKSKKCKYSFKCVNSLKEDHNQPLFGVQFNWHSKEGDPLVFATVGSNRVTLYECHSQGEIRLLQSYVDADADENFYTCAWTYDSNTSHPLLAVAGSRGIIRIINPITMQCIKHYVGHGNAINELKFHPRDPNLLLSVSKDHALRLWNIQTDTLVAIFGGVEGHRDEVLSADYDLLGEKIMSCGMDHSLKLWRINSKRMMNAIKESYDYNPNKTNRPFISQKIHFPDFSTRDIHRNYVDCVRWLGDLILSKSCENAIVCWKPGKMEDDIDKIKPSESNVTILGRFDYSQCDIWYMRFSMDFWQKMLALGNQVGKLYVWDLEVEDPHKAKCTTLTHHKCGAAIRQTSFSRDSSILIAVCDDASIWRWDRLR
T1 sequence (Q15022 whole entry partner): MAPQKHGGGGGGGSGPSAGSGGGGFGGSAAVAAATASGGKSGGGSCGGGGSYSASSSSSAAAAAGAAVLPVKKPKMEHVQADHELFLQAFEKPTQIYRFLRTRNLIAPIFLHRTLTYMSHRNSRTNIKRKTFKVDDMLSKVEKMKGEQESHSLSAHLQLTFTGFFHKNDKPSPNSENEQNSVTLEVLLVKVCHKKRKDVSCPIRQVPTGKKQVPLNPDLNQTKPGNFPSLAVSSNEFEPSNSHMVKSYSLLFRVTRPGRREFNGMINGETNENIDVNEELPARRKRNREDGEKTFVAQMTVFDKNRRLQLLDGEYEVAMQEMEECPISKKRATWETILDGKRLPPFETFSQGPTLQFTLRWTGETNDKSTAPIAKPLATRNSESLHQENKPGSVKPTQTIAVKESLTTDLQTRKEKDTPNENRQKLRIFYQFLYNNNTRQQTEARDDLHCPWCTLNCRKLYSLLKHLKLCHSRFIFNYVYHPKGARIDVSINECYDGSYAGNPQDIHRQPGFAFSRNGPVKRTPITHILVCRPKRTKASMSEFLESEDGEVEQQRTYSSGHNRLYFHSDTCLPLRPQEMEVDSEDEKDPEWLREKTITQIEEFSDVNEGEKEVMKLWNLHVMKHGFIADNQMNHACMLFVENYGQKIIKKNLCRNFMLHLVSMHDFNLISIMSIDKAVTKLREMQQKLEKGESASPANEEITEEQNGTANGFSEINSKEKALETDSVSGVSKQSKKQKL
T1 sequence (Q09028 whole entry partner): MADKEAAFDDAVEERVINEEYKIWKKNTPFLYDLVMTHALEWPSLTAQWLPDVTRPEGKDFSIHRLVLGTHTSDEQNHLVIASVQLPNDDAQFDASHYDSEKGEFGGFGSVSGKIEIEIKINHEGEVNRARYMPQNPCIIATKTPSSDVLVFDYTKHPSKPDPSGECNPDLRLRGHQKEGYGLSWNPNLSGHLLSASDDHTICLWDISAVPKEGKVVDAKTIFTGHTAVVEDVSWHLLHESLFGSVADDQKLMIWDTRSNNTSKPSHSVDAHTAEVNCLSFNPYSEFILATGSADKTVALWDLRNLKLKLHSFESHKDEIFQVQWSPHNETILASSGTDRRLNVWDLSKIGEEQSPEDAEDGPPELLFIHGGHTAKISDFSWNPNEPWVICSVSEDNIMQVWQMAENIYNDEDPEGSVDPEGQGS
T1 sequence (Q6ZN18 whole entry partner): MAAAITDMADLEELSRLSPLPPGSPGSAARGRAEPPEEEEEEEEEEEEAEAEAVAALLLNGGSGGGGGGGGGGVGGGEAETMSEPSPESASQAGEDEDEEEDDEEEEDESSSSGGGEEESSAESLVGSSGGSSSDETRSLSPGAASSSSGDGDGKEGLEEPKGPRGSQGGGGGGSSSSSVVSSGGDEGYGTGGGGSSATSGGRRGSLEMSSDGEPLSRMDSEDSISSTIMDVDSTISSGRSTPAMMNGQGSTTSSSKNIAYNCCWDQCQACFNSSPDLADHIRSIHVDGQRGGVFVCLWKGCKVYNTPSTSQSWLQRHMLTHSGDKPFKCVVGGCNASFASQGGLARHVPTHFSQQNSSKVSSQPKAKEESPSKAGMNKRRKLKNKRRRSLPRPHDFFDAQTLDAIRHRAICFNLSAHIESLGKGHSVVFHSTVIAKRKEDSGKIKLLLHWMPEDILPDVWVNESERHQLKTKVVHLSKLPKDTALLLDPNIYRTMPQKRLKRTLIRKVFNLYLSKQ
Briefly: Assay Protocol 2: EZH2 methyltransferase scintillation proximity assay, biotinylated histone H3 peptide substrate. It is filed as biochemical. Particulars: SPA, 3H-SAM, biotinylated unmethylated histone H3K27 peptide substrate, 5-member PRC2 complex. As for the experimental part:
Compounds contained herein were evaluated for their ability to inhibit the methyltransferase activity of EZH2 within the PRC2 complex. […] The peptides were captured on streptavidin-coated SPA beads and the resulting signal was read on a ViewLux plate reader. • 4. Prepare 10 mM stock of compounds from solid in 100% DMSO. • 5. […] Dispense 10 nL of compound from the dilution plate into reaction plates (Corning, 384-well polystyrene NBS, Cat#3673). Prepare the following solutions: • 7. 1× Base Buffer, 50 mM Tris-HCl, pH 8, 2 mM MgCl2: Per 1 L of base buffer, combine 1 M Tris-HCl, pH 8 (50 mL), 1 M MgCl2 (2 mL), and distilled water (948 mL). • 8. 1× Assay Buffer: Per 10 mL of 1× Assay Buffer, combine 1× Base Buffer (9.96 mL), 1 M DTT (40 uL), and 10% Tween-20 (1 uL) to provide a final concentration of 50 mM Tris-HCl, pH 8, 2 mM MgCl2, 4 mM DTT, 0.001% Tween-20. • 9. 2× Enzyme Solution: […] SPA Bead Solution: Per 1 mL of SPA Bead Solution, combine Streptavidin coated SPA beads (PerkinElmer, Cat# RPNQ0261, 40 mg) and 1× Assay Buffer (1 mL) to provide a working concentration of 40 mg/mL. • 11. 2× Substrate Solution: Per 10 mL of 2× Substrate Solution, combine 40 mg/mL SPA Bead Solution (375 uL), 1 mM biotinylated histone H3K27 peptide (200 uL), 12.5 uM 3H-SAM (240 uL; 1 mCi/mL), 1 mM cold SAM (57 uL), and 1× Assay Buffer (9.13 mL) to provide a final concentration of 0.75 mg/mL SPA Bead Solution, 10 uM biotinylated histone H3K27 peptide, 0.15 uM 3H-SAM (˜12 uCi/mL 3H-SAM), and 2.85 uM cold SAM. • 12. 2.67× Quench Solution: Per 10 mL of 2.67× Quench Solution, combine 1× Assay Buffer (9.73 mL) and 10 mM cold SAM (267 uL) to provide a final concentration of 100 uM cold SAM. • 3. […] Dispense 5 uL/well of 1× Assay Buffer to column 18 (low control reactions). • 11. Dispense 5 uL/well of 2× Substrate Solution to columns 1-24 (note: substrate solution should be mixed to ensure homogeneous bead suspension before dispensing into matrix reservoir). • 12. Dispense 5 uL/well of 2× Enzyme Solution to columns 1-17, 19-24. • 13. Incubate the reaction for 60 min at room temperature. • 5. Dispense 6 uL/well of the 2.67× Quench Solution to columns 1-24. • 6. Seal assay plates and spin for ˜1 min at 500 rpm. • 7. Dark adapt plates in the ViewLux instrument for 15-60 min. • 2. Read the assay plates on the Viewlux Plate Reader utilizing the 613 nm emission filter or clear filter (300 s exposure). Reagent addition can be done manually or with automated liquid handler. Percent inhibition was calculated relative to the DMSO control for each compound concentration and the resulting values were fit using standard IC50 fitting parameters within the ABASE data fitting software package.
(In a scintillation proximity assay essentially only radioactivity close to the scintillant gives light.)
Compound `CCN(c1cccc2c1C/C=C/CCc1cc(C)[nH]c(=O)c1CNC2=O)[C@H]1CC[C@H](NCC(F)(F)F)CC1` [Example 58, (E)-10-(ethyl(trans-4-((2,2,2-trifluoroethyl)amino)cyclohexyl)amino)-3-methyl-5,6,15,16-tetrahydrobenzo[c]pyrido[4,3-j][1]azacyclododecine-1,14(2H,9H)-dione] had an IC50 of 158 nM. This counts as sub-micromolar. As to `CCN(c1cccc2c1C/C=C/CCc1cc(C)[nH]c(=O)c1CNC2=O)[C@H]1CC[C@H](N(C)CC(F)(F)F)CC1` [Example 59, (E)-10-(ethyl(trans-4-(methyl(2,2,2-trifluoroethyl)amino)cyclohexyl)amino)-3-methyl-5,6,15,16-tetrahydrobenzo[c]pyrido[4,3-j][1]azacyclododecine-1,14(2H,9H)-dione], the 50% inhibitory concentration (IC50) is 316 nM. In turn, `CCN(c1cccc2c1C/C=C/CCc1cc(C)[nH]c(=O)c1CNC2=O)[C@H]1CC[C@H](N2CCC2)CC1` [Example 60, (E)-10-((trans-4-(azetidin-1-yl)cyclohexyl)(ethyl)amino)-3-methyl-5,6,15,16-tetrahydrobenzo[c]pyrido[4,3-j][1]azacyclododecine-1,14(2H,9H)-dione] gave a half-maximal inhibitory concentration (IC50) of 1260 nM. Then `CCN(c1cccc2c1C/C=C\Cc1cc(C)[nH]c(=O)c1CNC2=O)[C@H]1CC[C@H](N(C)C)CC1` [Example 61, (Z)-9-((trans-4-(dimethylamino)cyclohexyl)(ethyl)amino)-3-methyl-5,8,14,15-tetrahydro-1H-benzo[c]pyrido[4,3-i][1]azacycloundecine-1,13(2H)-dione], with 158 nM; and `CCN(c1cccc2c1CCCCc1cc(C)[nH]c(=O)c1CNC2=O)[C@H]1CC[C@H](N(C)C)CC1` [Example 62, 9-((trans-4-(dimethylamino)cyclohexyl)(ethyl)amino)-3-methyl-5,6,7,8,14,15-hexahydro-1H-benzo[c]pyrido[4,3-i][1]azacycloundecine-1,13(2H)-dione], with 251 nM.

Compound `CCN(c1nccc2c1C/C=C/CCc1cc(C)[nH]c(=O)c1CNC2=O)C1CCOCC1` [Example 63, (E)-10-(ethyl(tetrahydro-2H-pyran-4-yl)amino)-3-methyl-5,6,15,16-tetrahydrodipyrido[3,4-c:3′,4′-j][1]azacyclododecine-1,14(2H,9H)-dione] returned an IC50 of 251 nM. `Cc1cc2c(c(=O)[nH]1)CNC(=O)c1cccc(N(CCO)C3CCOCC3)c1C/C=C/CC2` [Example 64, (E)-10-((2-hydroxyethyl)(tetrahydro-2H-pyran-4-yl)amino)-3-methyl-5,6,15,16-tetrahydrobenzo[c]pyrido[4,3-j][1]azacyclododecine-1,14(2H,9H)-dione]: inhibition was half-maximal at 251 nM (IC50). Turning to `CCN(c1cccc2c1C/C=C/CCc1cc(C)[nH]c(=O)c1CNC2=O)C1CCN(N(C)C)CC1` [Example 65, (E)-10-((1-(dimethylamino)piperidin-4-yl)(ethyl)amino)-3-methyl-5,6,15,16-tetrahydrobenzo[c]pyrido[4,3-j][1]azacyclododecine-1,14(2H,9H)-dione], 316 nM corresponded to half-maximal inhibition (IC50). Compound `CCN(c1cccc2c1C/C=C/CCc1cc(C)[nH]c(=O)c1CNC2=O)C1CCC2(CC1)CNC2` [Example 66, (E)-10-(ethyl(2-azaspiro[3.5]nonan-7-yl)amino)-3-methyl-5,6,15,16-tetrahydrobenzo[c]pyrido[4,3-j][1]azacyclododecine-1,14(2H,9H)-dione] gave an IC50 of 251 nM. This IC50 and that of the compound before are within 1.5-fold of each other. Compound `CCN(c1cccc2c1C/C=C/CCc1cc(C)[nH]c(=O)c1CNC2=O)C1CCC2(CC1)CN(C)C2` [Example 67, (E)-10-(ethyl(2-methyl-2-azaspiro[3.5]nonan-7-yl)amino)-3-methyl-5,6,15,16-tetrahydrobenzo[c]pyrido[4,3-j][1]azacyclododecine-1,14(2H,9H)-dione] gave an IC50 of 100 nM. For `CCN(c1cccc2c1C/C=C/CCc1cc(C)[nH]c(=O)c1CNC2=O)C1CC2(CCNCC2)C1` [Example 68, (E)-10-(ethyl(7-azaspiro[3.5]nonan-2-yl)amino)-3-methyl-5,6,15,16-tetrahydrobenzo[c]pyrido[4,3-j][1]azacyclododecine-1,14(2H,9H)-dione], the midpoint of inhibition, the IC50, lay at 126 nM. In the case of `CCN(c1cccc2c1C/C=C/CCc1cc(C)[nH]c(=O)c1CNC2=O)C1CC2(CCN(C)CC2)C1` [Example 69, (E)-10-(ethyl(7-methyl-7-azaspiro[3.5]nonan-2-yl)amino)-3-methyl-5,6,15,16-tetrahydrobenzo[c]pyrido[4,3-j][1]azacyclododecine-1,14(2H,9H)-dione], 158 nM corresponded to half-maximal inhibition (IC50).

In turn, `CCN(c1cccc2c1C/C=C/CCc1cc(C)[nH]c(=O)c1CNC2=O)C1CC2(CC(N)C2)C1` (stereo not drawn) [Example 70, (E)-10-((6-aminospiro[3.3]heptan-2-yl)(ethyl)amino)-3-methyl-5,6,15,16-tetrahydrobenzo[c]pyrido[4,3-j][1]azacyclododecine-1,14(2H,9H)-dione] displayed an IC50 of 126 nM. `CCN(c1cccc2c1C/C=C/CCc1cc(C)[nH]c(=O)c1CNC2=O)C1CC2(CC(N(C)C)C2)C1` (stereo not drawn) [Example 71, (E)-10-((6-(dimethylamino)spiro[3.3]heptan-2-yl)(ethyl)amino)-3-methyl-5,6,15,16-tetrahydrobenzo[c]pyrido[4,3-j][1]azacyclododecine-1,14(2H,9H)-dione] had an IC50 of 251 nM. Then `CCN(c1cccc2c1C/C=C/CCc1cc(C)[nH]c(=O)c1CNC2=O)C1CC2(C1)CN(C)C2` [Example 72, (E)-10-(ethyl(2-methyl-2-azaspiro[3.3]heptan-6-yl)amino)-3-methyl-5,6,15,16-tetrahydrobenzo[c]pyrido[4,3-j][1]azacyclododecine-1,14(2H,9H)-dione], with 79 nM; and `CCN(c1cccc2c1C/C=C/CCc1cc(C)[nH]c(=O)c1CNC2=O)[C@H]1CC[C@H](NC)CC1` [Example 73, (E)-10-(ethyl(trans-4-(methylamino)cyclohexyl)amino)-3-methyl-5,6,15,16-tetrahydrobenzo[c]pyrido[4,3-j][1]azacyclododecine-1,14(2H,9H)-dione formic acid salt], with 126 nM; and `CCN(c1cccc2c1C/C=C/CCc1cc(C)[nH]c(=O)c1CNC2=O)[C@H]1CC[C@@H](NC)CC1` [Example 74, (E)-10-(ethyl(cis-4-(methylamino)cyclohexyl)amino)-3-methyl-5,6,15,16-tetrahydrobenzo[c]pyrido[4,3-j][1]azacyclododecine-1,14(2H,9H)-dione formic acid salt], with 158 nM. In the case of `CCN(c1cccc2c1C/C=C/CCc1cc(C)[nH]c(=O)c1CNC2=O)[C@H]1CC[C@@H](N2CC(F)C2)CC1` [Example 75, (E)-10-(ethyl(cis-4-(3-fluoroazetidin-1-yl)cyclohexyl)amino)-3-methyl-5,6,15,16-tetrahydrobenzo[c]pyrido[4,3-j][1]azacyclododecine-1,14(2H,9H)-dione], the midpoint of inhibition, the IC50, lay at 251 nM. Then `CCN(c1cccc2c1C/C=C/CCc1cc(C)[nH]c(=O)c1CNC2=O)[C@H]1CC[C@H](N2CC(F)C2)CC1` [Example 76, (E)-10-(ethyl(trans-4-(3-fluoroazetidin-1-yl)cyclohexyl)amino)-3-methyl-5,6,15,16-tetrahydrobenzo[c]pyrido[4,3-j][1]azacyclododecine-1,14(2H,9H)-dione], with 126 nM; and `CCN(c1cccc2c1C/C=C/CCc1cc(C)[nH]c(=O)c1CNC2=O)C1CCCNCC1` (stereo not drawn) [Example 77, (E)-10-(azepan-4-yl(ethyl)amino)-3-methyl-5,6,15,16-tetrahydrobenzo[c]pyrido[4,3-j][1]azacyclododecine-1,14(2H,9H)-dione], with 158 nM; and `CCN(c1cccc2c1C/C=C/CCc1cc(C)[nH]c(=O)c1CNC2=O)[C@H]1CC[C@@H](O)CC1` [Example 78, (E)-10-(ethyl(cis-4-hydroxycyclohexyl)amino)-3-methyl-5,6,15,16-tetrahydrobenzo[c]pyrido[4,3-j][1]azacyclododecine-1,14(2H,9H)-dione], with 158 nM.
